# Measured values as given in patent US11498899B2, “Nitrone herbicides” (FMC Corporation, priority 2016, dated 2022).
# Key:
# [1] = test system: pigweed (Amaranthus retroflexus); test: Test A preemergence, visual injury rating 0-100; type: in vivo
# kochia (Kochia scoparia) [2] = test: Test A preemergence, visual injury rating 0-100; type: in vivo
# [3] = test system: foxtail, giant (giant foxtail, Setaria faberii); test: Test A preemergence, visual injury rating 0-100; type: in vivo
# [4] = test system: ragweed (common ragweed, Ambrosia elatior); test: Test A preemergence, visual injury rating 0-100; type: in vivo
# [5] = test system: ryegrass, Italian (Italian ryegrass, Lolium multiflorum); test: Test A preemergence, visual injury rating 0-100; type: in vivo
# [6] = test system: barnyardgrass (Echinochloa crus-galli); test: Test A preemergence, visual injury rating 0-100 (0 no effect, 100 complete control); type: in vivo
# [7] = test system: barnyardgrass (Echinochloa crus-galli); test: Test B flooded paddy test, visual rating 0-100; conditions: Flood, 250 g ai/ha, applied to paddy water, rated after 13 to 15 days
# [8] = test system: galium (catchweed bedstraw, Galium aparine); test: Test A postemergence, visual injury rating 0-100; type: in vivo; conditions: 0 to 100 scale
# [9] = test system: pigweed (Amaranthus retroflexus); test: Test A postemergence, visual injury rating 0-100; type: in vivo; conditions: 0 to 100 scale
# kochia (Kochia scoparia) [10] = test: Test A postemergence, visual injury rating 0-100; type: in vivo; conditions: 0 to 100 scale
# [11] = test system: wheat (Triticum aestivum); test: Test A postemergence, visual injury rating 0-100; type: in vivo; conditions: 0 to 100 scale
# [12] = test system: blackgrass (Alopecurus myosuroides); test: Test A postemergence, visual injury rating 0-100; type: in vivo; conditions: 0 to 100 scale
# [13] = test system: foxtail, giant (giant foxtail, Setaria faberii); test: Test A postemergence, visual injury rating 0-100; type: in vivo; conditions: 0 to 100 scale
# [14] = test system: ragweed (common ragweed, Ambrosia elatior); test: Test A postemergence, visual injury rating 0-100; type: in vivo; conditions: 0 to 100 scale
# [15] = test system: barnyardgrass (Echinochloa crus-galli); test: Test A postemergence, visual injury rating 0-100; type: in vivo; conditions: 0 to 100 scale
# [16] = test system: ryegrass, Italian (Italian ryegrass, Lolium multiflorum); test: Test A postemergence, visual injury rating 0-100; type: in vivo; conditions: 0 to 100 scale
# corn (Zea mays) = test: Test A postemergence, visual injury rating 0-100; type: in vivo; conditions: 0 to 100 scale
# rice (Oryza sativa) = test: Test B flooded paddy test, visual rating 0-100 (0 no effect, 100 complete control); conditions: Flood, 250 g ai/ha, applied to paddy water, rated after 13 to 15 days
# [17] = test system: ducksalad (Heteranthera limosa); test: Test B flooded paddy test, visual rating 0-100; conditions: Flood, 250 g ai/ha, applied to paddy water, rated after 13 to 15 days
Compound,Pigweed plant response rating (0 to 100 scale) ([1]; 125 g ai/ha),Pigweed plant response rating (0 to 100 scale) ([1]; 500 g ai/ha),Kochia plant response rating (0 to 100 scale) (kochia (Kochia scoparia) [2]; 125 g ai/ha),Kochia plant response rating (0 to 100 scale) (kochia (Kochia scoparia) [2]; 500 g ai/ha),"Foxtail, Giant plant response rating (0 to 100 scale) ([3]; 125 g ai/ha)","Foxtail, Giant plant response rating (0 to 100 scale) ([3]; 500 g ai/ha)",Ragweed plant response rating (0 to 100 scale) ([4]; 125 g ai/ha),Ragweed plant response rating (0 to 100 scale) ([4]; 500 g ai/ha),"Ryegrass, Italian plant response rating (0 to 100 scale) ([5]; 500 g ai/ha)",Barnyardgrass plant response rating (0 to 100 scale) ([6]; 125 g ai/ha),Barnyardgrass plant response rating (0 to 100 scale) ([6]; 500 g ai/ha),Barnyardgrass plant response rating (0 to 100 scale) [7],Galium plant response rating ([8]; 125 g ai/ha),Galium plant response rating ([8]; 500 g ai/ha),Pigweed plant response rating ([9]; 125 g ai/ha),Pigweed plant response rating ([9]; 500 g ai/ha),Kochia plant response rating (kochia (Kochia scoparia) [10]; 125 g ai/ha),Kochia plant response rating (kochia (Kochia scoparia) [10]; 500 g ai/ha),Wheat plant response rating ([11]; 125 g ai/ha),Wheat plant response rating ([11]; 500 g ai/ha),also measured
CC1=[N+]([O-])C(C(=O)Nc2cccc(F)c2F)C(c2cc(F)c(C(F)(F)F)c(F)c2)C1 (racemic) [Compound 114],50,80,20,80,90,90,80,90,90,90,90,40,70,70,0,70,20,70,40,60,"Blackgrass plant response rating ([12]; 125 g ai/ha): 80; Blackgrass plant response rating ([12]; 500 g ai/ha): 80; Foxtail, Giant plant response rating ([13]; 125 g ai/ha): 80; Foxtail, Giant plant response rating ([13]; 500 g ai/ha): 90; Ragweed plant response rating ([14]; 125 g ai/ha): 30; Ragweed plant response rating ([14]; 500 g ai/ha): 70; Barnyardgrass plant response rating ([15]; 125 g ai/ha): 70; Barnyardgrass plant response rating ([15]; 500 g ai/ha): 90; Ryegrass, Italian plant response rating ([16]; 125 g ai/ha): 60; Ryegrass, Italian plant response rating ([16]; 500 g ai/ha): 70; Corn plant response rating (corn (Zea mays); 125 g ai/ha): 40; Corn plant response rating (corn (Zea mays); 500 g ai/ha): 80; Rice plant response rating (0 to 100 scale) (rice (Oryza sativa)): 30; Ducksalad plant response rating (0 to 100 scale) [17]: 60"
COc1cc(OC)cc(C2CC(C)=[N+]([O-])C2C(=O)Nc2cccc(F)c2F)c1 (stereo not drawn) [Compound 96],0,10,0,40,90,90,0,0,0,90,100,0,0,20,0,0,0,0,0,10,"Ryegrass, Italian plant response rating (0 to 100 scale) ([5]; 125 g ai/ha): 0; Blackgrass plant response rating ([12]; 125 g ai/ha): 40; Blackgrass plant response rating ([12]; 500 g ai/ha): 90; Foxtail, Giant plant response rating ([13]; 125 g ai/ha): 40; Foxtail, Giant plant response rating ([13]; 500 g ai/ha): 90; Ragweed plant response rating ([14]; 125 g ai/ha): 0; Ragweed plant response rating ([14]; 500 g ai/ha): 30; Barnyardgrass plant response rating ([15]; 125 g ai/ha): 60; Barnyardgrass plant response rating ([15]; 500 g ai/ha): 90; Ryegrass, Italian plant response rating ([16]; 125 g ai/ha): 0; Ryegrass, Italian plant response rating ([16]; 500 g ai/ha): 60; Corn plant response rating (corn (Zea mays); 125 g ai/ha): 10; Corn plant response rating (corn (Zea mays); 500 g ai/ha): 70; Rice plant response rating (0 to 100 scale) (rice (Oryza sativa)): 0; Ducksalad plant response rating (0 to 100 scale) [17]: 0"
